Laboratory results from patent US8097422B2, “Kir channel modulators” (Salk Institute for Biological Studies, priority 2007, dated 2012).
Changes are numbered by the printed parent chain.

What was measured:
Assay type in all cases: cell-based
[1] = target: T1, IRK1 L245W mutant channel (Mus musculus, UniProt P35561, L245W); experiment: whole-cell patch clamp, IRK1 L245W mutant channel; conditions: equimolar 50 mM alcohol series
T1 construct: expressed in transfected cells; host or cells: HEK293 / HEK293T
T1 sequence (P35561 1-428 L245W): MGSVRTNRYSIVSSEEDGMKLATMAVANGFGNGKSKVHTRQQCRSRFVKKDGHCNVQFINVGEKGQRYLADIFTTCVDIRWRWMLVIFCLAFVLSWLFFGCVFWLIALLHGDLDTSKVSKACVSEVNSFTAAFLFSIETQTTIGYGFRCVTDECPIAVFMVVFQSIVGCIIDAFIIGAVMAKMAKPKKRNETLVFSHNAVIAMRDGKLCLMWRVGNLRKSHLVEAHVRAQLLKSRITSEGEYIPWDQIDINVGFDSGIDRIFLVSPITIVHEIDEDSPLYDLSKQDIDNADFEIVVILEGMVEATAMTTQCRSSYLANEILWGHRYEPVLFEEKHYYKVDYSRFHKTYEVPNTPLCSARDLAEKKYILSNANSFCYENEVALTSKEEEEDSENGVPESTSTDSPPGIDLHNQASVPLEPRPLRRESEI
Procedure: (§1) Point mutations were introduced by Quickchange site directed mutagenesis kit (Stratagene). The GIRK2 PIP mutant was generated by overlap-PCR method. […] Mutations were confirmed by automated DNA sequencing methods. […] Cells were plated in a 12 well dish, and were transiently transfected using Lipofectamine 2000 (Invitrogen). After 12-24 hrs, cells were re-plated to 12-mm glass coverslips coated with poly-D-[…] microgram/ml). […] The cells were co-transfected with 0.04 micrograms of eYFP cDNA to identify transfected cells. 0.8 micrograms of Muscarinic Receptor 2 (M2R) was also co-transfected for experiments with Carbachol. […] Whole-cell patch clamp recordings were performed 24-72 hrs after transfection. […] Alcohols, 5 μM Carbachol, and 1 mM BaCl2 (diluted in 20K solution) were applied from outside the cell with the rapid perfusion system (Warner Instruments). […] Current-voltage relationships also were obtained from the ramp protocol. This protocol was used to measure the inwardly rectifying currents at -100 mV and to ensure stability of recording by monitoring a reversal potential and inward rectification. […] Alcohol and Carbachol modulated currents were measured by averaging two consecutive current readings upon reaching steady state, and subtracting the averaged basal current before and after the application of modulator.

[2] = target: T2, GIRK2 Y349W mutant channel (Mus musculus, UniProt P48542, Y349W); experiment: whole-cell patch clamp, GIRK2 Y349W mutant channel; conditions: n=10
T2 construct: expressed in transfected cells; host or cells: HEK293T
Procedure: as §1

[3] = target: T3, GIRK2 L257W mutant channel (Mus musculus, UniProt P48542, L257W); experiment: whole-cell patch clamp, GIRK2 L257W mutant channel; conditions: n=9; for modulation of GIRK2 L257W, percentage change from basal current (negative = inhibition): alcohols as for wild type (100 mM)
T3 construct: expressed in transfected cells; host or cells: HEK293T
T3 sequence (P48542 1-425 L257W): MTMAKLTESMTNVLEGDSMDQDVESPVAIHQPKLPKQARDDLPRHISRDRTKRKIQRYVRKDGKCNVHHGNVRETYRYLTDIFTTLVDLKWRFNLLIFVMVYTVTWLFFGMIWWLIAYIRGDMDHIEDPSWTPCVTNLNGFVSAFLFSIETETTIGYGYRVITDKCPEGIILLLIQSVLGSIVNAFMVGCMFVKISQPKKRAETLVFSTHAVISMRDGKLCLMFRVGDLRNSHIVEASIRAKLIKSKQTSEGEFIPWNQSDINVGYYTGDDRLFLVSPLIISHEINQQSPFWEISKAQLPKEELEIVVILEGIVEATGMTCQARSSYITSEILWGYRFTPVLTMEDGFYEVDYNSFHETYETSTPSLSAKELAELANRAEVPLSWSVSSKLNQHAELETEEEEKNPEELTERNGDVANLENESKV
Procedure: as §1

[4] = tested on: GIRK2 PIP S148T mutant channel; experiment: whole-cell patch clamp, GIRK2 PIP S148T mutant channel; conditions: GIRK2 PIP S148T compared with GIRK2 PIP L257W
Procedure: as §1

Kir3 channels [5] = experiment: patch-clamp determination of ion transport activity: activation of Kir3 channels; conditions: Kir3 activation or Kir2 inactivation
Excerpt: (§2) It has been determined that inwardly rectifying potassium (Kir) channels are regulated directly by small molecule alcohol compounds. Three-dimensional crystallographic analysis of Kir channels has elucidated atomic details of binding pocket interactions with 2-methyl-2,4-pentanediol (MPD). MPD inhibits Kir2 channel activity and activates Kir3 channel activity. Amino acid substitutions in this hydrophobic pocket of the channel protein may alter the response to MPD. As determined by patch-clamp determinations of ion transport activity, a racemic mixture of 2-methyl-2,4-pentanediol, (±)MPD, activates Kir3 channels with an EC50 of >200 mM and inhibits Kir2 homotetramer channels with an IC50 of ˜200 mM. […] Bupivacaine inhibits Kir3.1/3.4 and Kir3.1/3.2 channels with an IC50 of ˜20-40 micromolar.
(§3) The following also were observed. Maximal activation of Kir3 channels by 100 mM (±)MPD is 280% that of 100 mM EtOH. Maximal activation of Kir3 channels by 100 mM R(−)2 methyl-2,4-pentanediol is 60% that of 100 mM (±)MPD. Maximal activation of Kir3 channels by 100 mM 3-methyl-1,3,5-pentanetriol is 70% that of 100 mM (±)MPD. Maximal activation of Kir3 channels by 100 mM 2,5-dimethyl-1,2,6-hexanetriol is 70% that of 100 mM (±)MPD. Maximal activation of Kir3 channels by 100 mM (±) 2,4-pentanediol is 50% that of 100 mM (±)MPD.

Kir3 channels [6] = target: T4, Kir3 channels (Mus musculus, UniProt P48542); experiment: as above; conditions: read-out: Maximal activation of Kir3 channels relative to that of 100 mM EtOH
T4 construct: other: patch-clamp; other: 100 mM
T4 sequence (P48542 1-425): T3 sequence (P48542 1-425 L257W) with W257L
Excerpt: as §2, §3

T2 sequence (P48542 whole entry Y349W): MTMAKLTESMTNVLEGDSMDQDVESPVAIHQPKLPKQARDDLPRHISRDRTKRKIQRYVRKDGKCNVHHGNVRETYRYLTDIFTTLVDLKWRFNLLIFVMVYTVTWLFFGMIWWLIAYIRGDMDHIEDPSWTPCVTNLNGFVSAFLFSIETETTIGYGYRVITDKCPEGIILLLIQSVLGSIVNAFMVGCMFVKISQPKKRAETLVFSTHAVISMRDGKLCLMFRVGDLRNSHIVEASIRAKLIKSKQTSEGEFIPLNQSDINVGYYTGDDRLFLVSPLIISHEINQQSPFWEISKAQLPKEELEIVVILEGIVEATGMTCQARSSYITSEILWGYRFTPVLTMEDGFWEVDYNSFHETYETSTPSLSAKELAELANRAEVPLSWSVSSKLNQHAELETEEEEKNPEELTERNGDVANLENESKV

Molecule | inhibition of IRK1 L245W mutant channel, percentage inhibition [1] [%] | 1-PrOH activated current, GIRK2 Y349W, percentage change from basal current [2] [%] | modulation of GIRK2 L257W, percentage change from basal current (negative = inhibition) [3] [%] | change in sensitivity to inhibition when Ser at the P-loop is mutated to Thr [4] [fold] | time course of inactivation or activation after application (Kir3 channels [5]) | Emax at 100000 µM (Kir3 channels [6]) [%] | Carbachol activated current, GIRK2 Y349W, percentage change from basal current ([2]; 5 μM Carbachol) | G-protein mediated activation, GIRK2 L257W, percentage change from basal current ([3]; 5 μM Carbachol, M2R co-transfected) [%]
1-butanol [1-BuOH] | −20±2 | – | – | – | – | – | – | –
1-propanol [1-PrOH] | −8±1 | 256±25 | 57±6 | ~100 | – | – | – | –
CC(O)CC(C)(C)O (racemic) [MPD, 2-methyl-2,4-pentanediol] | −27±2 | – | −97±4 | ~20 | within seconds | 280 | – | –
C[N+](C)(C)CCOC(N)=O [Carbachol] | – | – | – | – | – | – | 56±5 | 12±2
CCO [EtOH, ethanol] | −3±1 | – | 34±3 | – | – | – | – | –
